From ChEMBL document CHEMBL3352264, “Synthesis and structure-activity relationships of new carbonyl guanidine derivatives as novel dual 5-HT₂B and 5-HT₇ receptor antagonists. Part 2” (Bioorg Med Chem, 2014)
Active and inactive are the calls of the source. The calls are words filed in the database; no cut-off is given here.

Key:
[1] = molecular target: T1, 5-hydroxytryptamine receptor 2B (Homo sapiens, UniProt P41595); test: Displacement of [3H]Mesulergine from human 5-HT2B receptor expressed in HEK293-EBNA cells by liquid scintillation counting; assay type: cell-based
T1 sequence (P41595 whole entry): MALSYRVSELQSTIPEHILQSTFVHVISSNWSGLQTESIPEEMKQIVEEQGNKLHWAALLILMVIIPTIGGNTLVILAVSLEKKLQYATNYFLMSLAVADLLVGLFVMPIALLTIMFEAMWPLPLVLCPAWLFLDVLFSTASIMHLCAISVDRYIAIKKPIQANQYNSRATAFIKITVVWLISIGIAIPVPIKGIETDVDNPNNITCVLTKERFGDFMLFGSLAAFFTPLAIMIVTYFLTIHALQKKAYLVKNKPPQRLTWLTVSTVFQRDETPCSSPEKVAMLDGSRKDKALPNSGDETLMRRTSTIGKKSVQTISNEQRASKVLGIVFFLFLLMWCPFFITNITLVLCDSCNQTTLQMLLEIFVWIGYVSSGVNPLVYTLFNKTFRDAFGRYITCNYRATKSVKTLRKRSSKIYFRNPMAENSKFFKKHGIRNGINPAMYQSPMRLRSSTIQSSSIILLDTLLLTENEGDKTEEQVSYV

[2] = molecular target: T2, 5-hydroxytryptamine receptor 7 (Homo sapiens, UniProt P34969); test: Displacement of [3H]HT from human 5-HT7 receptor expressed in CHO cells by liquid scintillation counting; assay type: cell-based
T2 sequence (P34969 whole entry): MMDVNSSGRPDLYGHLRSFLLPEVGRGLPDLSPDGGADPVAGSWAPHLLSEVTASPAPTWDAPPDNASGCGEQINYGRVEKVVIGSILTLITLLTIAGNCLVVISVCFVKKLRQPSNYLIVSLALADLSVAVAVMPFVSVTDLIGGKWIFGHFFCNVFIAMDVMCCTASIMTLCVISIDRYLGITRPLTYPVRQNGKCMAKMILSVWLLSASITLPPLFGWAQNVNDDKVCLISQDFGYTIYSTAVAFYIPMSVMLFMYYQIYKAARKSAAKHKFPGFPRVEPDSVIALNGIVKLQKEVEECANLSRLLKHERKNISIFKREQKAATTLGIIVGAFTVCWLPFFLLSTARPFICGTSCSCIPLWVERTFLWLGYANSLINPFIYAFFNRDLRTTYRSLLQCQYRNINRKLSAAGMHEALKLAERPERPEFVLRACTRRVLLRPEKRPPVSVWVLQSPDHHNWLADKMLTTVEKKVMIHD

Mus musculus [3] = test: Hypothermic effect in po dosed ddY mouse measured after 60 mins of treatment; assay type: ADME, organism-based; settings: in vivo, 1 h
[4] = molecular target: T3, Adrenergic receptor alpha-1 (Homo sapiens, UniProt P35348+P25100+P35368); test: Binding affinity to alpha-1 adrenergic receptor (unknown origin)
T3 sequence (P35348 whole entry): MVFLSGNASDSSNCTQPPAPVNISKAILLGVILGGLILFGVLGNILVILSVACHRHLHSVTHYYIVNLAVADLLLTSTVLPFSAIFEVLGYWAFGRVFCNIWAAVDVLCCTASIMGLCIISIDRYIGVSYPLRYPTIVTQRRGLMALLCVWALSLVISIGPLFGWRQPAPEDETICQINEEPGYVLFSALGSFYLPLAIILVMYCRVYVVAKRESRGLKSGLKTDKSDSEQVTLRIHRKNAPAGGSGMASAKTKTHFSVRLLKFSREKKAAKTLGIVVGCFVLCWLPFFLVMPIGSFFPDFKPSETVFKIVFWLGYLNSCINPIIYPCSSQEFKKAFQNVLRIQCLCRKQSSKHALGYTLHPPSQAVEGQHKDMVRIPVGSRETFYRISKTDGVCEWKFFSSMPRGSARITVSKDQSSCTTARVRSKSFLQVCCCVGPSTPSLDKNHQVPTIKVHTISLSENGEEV
T3 sequence (P25100 whole entry): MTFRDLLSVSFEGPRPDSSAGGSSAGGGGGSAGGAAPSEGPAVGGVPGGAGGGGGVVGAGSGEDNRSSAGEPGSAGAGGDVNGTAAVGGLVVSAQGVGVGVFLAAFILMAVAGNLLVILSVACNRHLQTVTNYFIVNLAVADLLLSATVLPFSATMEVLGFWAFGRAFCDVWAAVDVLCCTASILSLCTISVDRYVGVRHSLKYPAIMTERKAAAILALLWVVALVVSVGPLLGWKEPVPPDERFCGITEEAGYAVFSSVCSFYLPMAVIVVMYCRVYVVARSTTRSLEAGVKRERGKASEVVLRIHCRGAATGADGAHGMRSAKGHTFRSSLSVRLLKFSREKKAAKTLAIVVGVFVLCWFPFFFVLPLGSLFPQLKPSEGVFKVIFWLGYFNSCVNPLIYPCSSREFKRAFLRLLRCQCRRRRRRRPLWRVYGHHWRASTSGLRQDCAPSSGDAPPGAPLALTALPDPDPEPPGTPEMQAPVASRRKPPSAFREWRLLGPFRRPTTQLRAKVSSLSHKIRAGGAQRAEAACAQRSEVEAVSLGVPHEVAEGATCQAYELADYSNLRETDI
T3 sequence (P35368 whole entry): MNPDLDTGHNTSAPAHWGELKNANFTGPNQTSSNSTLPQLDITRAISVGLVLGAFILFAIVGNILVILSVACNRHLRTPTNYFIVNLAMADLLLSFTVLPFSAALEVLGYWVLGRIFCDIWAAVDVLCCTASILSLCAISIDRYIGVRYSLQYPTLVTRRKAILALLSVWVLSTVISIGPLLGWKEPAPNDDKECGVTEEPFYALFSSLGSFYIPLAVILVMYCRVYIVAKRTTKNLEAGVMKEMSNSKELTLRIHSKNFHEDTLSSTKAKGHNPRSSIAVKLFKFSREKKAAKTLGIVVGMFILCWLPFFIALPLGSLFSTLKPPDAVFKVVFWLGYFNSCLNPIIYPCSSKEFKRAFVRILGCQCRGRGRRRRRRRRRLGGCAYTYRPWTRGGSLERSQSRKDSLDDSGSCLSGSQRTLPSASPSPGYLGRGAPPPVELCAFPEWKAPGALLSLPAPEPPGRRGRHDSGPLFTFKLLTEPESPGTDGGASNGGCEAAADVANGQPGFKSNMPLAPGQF

[5] = molecular target: 5-hydroxytryptamine receptor 2A (Homo sapiens, UniProt P28223); test: Binding affinity to 5-HT2A receptor (unknown origin)
Sequence of 5-hydroxytryptamine receptor 2A (P28223 whole entry): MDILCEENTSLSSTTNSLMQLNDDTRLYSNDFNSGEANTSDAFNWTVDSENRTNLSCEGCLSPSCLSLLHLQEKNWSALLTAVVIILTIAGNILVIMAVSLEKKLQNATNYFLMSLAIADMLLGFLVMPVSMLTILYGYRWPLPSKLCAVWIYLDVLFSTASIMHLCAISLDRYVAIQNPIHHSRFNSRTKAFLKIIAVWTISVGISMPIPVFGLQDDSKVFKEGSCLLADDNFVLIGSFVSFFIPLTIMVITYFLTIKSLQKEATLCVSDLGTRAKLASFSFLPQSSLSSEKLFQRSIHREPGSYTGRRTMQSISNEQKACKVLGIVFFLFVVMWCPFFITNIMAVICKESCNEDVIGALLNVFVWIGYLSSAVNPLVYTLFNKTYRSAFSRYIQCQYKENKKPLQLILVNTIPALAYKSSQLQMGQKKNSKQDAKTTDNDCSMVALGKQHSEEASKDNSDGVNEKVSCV

Mus musculus [6] = test: Reversal of 5-carboxamidotryptamine-incued hypothermia in po dosed ddY mouse measured after 60 mins of treatment; assay type: functional; settings: 1 h, read-out: MED
[7] = molecular target: T4, Muscarinic acetylcholine receptor M1 (Homo sapiens, UniProt P11229); test: Binding affinity to muscarinic M1 receptor (unknown origin)
T4 sequence (P11229 whole entry): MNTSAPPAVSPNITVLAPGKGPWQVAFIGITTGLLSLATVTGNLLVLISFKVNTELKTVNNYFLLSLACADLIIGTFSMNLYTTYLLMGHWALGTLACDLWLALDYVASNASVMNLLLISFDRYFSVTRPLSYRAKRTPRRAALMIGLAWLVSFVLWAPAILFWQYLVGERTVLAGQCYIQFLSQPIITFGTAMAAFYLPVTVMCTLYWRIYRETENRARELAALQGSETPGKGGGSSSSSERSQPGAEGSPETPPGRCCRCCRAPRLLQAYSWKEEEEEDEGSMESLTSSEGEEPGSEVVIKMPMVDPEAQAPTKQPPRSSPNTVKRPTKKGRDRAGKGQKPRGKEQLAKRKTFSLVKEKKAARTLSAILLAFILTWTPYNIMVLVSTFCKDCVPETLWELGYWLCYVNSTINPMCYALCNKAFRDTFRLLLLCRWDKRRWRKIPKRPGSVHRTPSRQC

[8] = molecular target: T2, 5-hydroxytryptamine receptor 7; test: Inhibition of human 5-HT7 receptor expressed in CHO cells assessed as cAMP production by EIA system; assay type: functional, cell-based
[9] = molecular target: T5, 5-hydroxytryptamine receptor 2C (Homo sapiens, UniProt P28335); test: Binding affinity to 5-HT2C receptor (unknown origin)
T5 sequence (P28335 whole entry): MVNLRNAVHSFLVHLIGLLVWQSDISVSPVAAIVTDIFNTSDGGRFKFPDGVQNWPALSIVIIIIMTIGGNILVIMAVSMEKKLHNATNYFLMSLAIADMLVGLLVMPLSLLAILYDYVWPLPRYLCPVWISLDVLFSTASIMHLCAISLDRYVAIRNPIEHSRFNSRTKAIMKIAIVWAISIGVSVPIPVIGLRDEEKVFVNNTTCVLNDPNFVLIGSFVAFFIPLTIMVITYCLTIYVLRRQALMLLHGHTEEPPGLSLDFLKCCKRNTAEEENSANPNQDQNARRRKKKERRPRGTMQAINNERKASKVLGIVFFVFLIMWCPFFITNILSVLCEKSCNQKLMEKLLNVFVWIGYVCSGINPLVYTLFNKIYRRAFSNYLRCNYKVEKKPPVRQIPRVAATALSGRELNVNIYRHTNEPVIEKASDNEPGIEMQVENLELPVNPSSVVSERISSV

D(2) dopamine receptor = D(2) dopamine receptor (Homo sapiens, UniProt P14416); test: Binding affinity to dopamine D2 receptor (unknown origin)
Sequence of D(2) dopamine receptor (P14416 whole entry): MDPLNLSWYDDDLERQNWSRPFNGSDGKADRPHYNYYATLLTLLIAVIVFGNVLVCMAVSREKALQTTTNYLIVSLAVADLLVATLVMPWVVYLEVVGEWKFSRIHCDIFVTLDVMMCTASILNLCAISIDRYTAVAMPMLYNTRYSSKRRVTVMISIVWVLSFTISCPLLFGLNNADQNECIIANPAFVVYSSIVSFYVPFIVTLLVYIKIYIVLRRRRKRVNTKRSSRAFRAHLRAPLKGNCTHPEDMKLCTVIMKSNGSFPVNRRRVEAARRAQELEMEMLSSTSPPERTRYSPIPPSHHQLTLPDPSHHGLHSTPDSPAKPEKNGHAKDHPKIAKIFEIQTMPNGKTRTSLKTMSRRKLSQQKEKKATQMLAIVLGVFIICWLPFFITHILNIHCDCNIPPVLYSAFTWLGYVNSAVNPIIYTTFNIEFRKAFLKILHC

Cavia porcellus [10] = test: Suppression of 5-HT-induced dural plasma protein extravasation in Hartley guinea pig at 30 mg/kg, po after 16 hrs; assay type: functional, organism-based; design: dose 30 mg/kg
[11] = molecular target: T1, 5-hydroxytryptamine receptor 2B; test: Inhibition of human 5-HT2B receptor expressed in HEK293-EBNA cells assessed as [3H]PI metabolism by liquid scintillation counting; assay type: cell-based
Cavia porcellus [12] = test: Suppression of 5-HT-induced dural plasma protein extravasation in po dosed Hartley guinea pig after 16 hrs; assay type: functional, organism-based

Row | SMILES | Ki [1] [nM] | Ki [2] [nM] | other results
1 | COCc1cccc2c1-c1ccc(C(=O)N=C(N)N)cc1C2O (stereo not given) | 6.3 | 50 | –
2 | CC1(O)c2ccccc2-c2ccc(C(=O)N=C(N)N)cc21.Cl (stereo not given) | 4.3 | 4.3 | Ki [4]: > 1000 nM; Ki [5]: > 1000 nM; minimal effective dose (Mus musculus [6]): 30 mg/kg; Ki [7]: > 1000 nM; IC50 [8]: 59 nM; Ki [9]: 390 nM; Ki (D(2) dopamine receptor): > 1000 nM; inhibition (Cavia porcellus [10]): Active; IC50 [11]: 52 nM; inhibition (Cavia porcellus [12]): Dose-dependent effect
3 | NC(N)=NC(=O)c1ccc2c(c1)C(O)c1ccccc1-2 (stereo not given) | – | – | minimal effective dose (Mus musculus [6]): > 30 mg/kg
4 | CCc1cccc2c1-c1ccc(C(=O)N=C(N)N)cc1C2(C)O.Cl (stereo not given) | 0.71 | 2.3 | minimal effective dose (Mus musculus [6]): > 30 mg/kg
5 | NC(N)=NC(=O)c1ccc2c(c1)C(N)c1ccccc1-2 (stereo not given) | 18 | 43 | –
6 | CC1c2ccccc2-c2ccc(C(=O)N=C(N)N)cc21.Cl (stereo not given) | 4.4 | 4.1 | Activity (Mus musculus [3]): Toxic
7 | CC(=O)NC1c2ccccc2-c2ccc(C(=O)N=C(N)N)cc21 (stereo not given) | 34 | 180 | –
8 | N=C(N)NC(=O)c1ccc2c(c1)C(F)c1ccccc1-2 (stereo not given) | 0.9 | 57 | –
9 | Cc1cccc2c1-c1ccc(C(=O)N=C(N)N)cc1C2(C)O.Cl (stereo not given) | 1.1 | 4 | minimal effective dose (Mus musculus [6]): > 30 mg/kg

The next lines start with results.

Row | Ki [1] [nM] | Ki [2] [nM] | SMILES | other results
10 | 0.81 | 14 | Cc1cccc2c1-c1ccc(C(=O)N=C(N)N)cc1C2O.Cl (stereo not given) | Activity (Mus musculus [3]): Toxic
11 | 1.7 | > 1000 | NC(N)=NC(=O)c1ccc2c(c1)C(O)c1cc(Cl)ccc1-2 (stereo not given) | –
12 | 1.5 | 41 | NC(N)=NC(=O)c1ccc2c(c1)C(O)c1cccc(Cl)c1-2 (stereo not given) | –
13 | 0.67 | 87 | Cc1cccc2c1C(O)c1cc(C(=O)N=C(N)N)ccc1-2 (stereo not given) | –
14 | 0.11 | 33 | NC(N)=NC(=O)c1ccc2c(c1)C(O)c1c(Cl)cccc1-2 (stereo not given) | –
15 | 11 | 160 | NC(N)=NC(=O)c1ccc2c(c1)C(O)c1ccc(Cl)cc1-2 (stereo not given) | –
16 | 1.6 | 4.1 | CCc1cccc2c1-c1ccc(C(=O)N=C(N)N)cc1C2O (stereo not given) | minimal effective dose (Mus musculus [6]): > 30 mg/kg
17 | 6.6 | 41 | NC(N)=NC(=O)c1ccc2c(c1)C(O)c1cccc(CO)c1-2 (stereo not given) | –
18 | 0.91 | 29 | NC(N)=NC(=O)c1ccc2c(c1)C(O)c1cccc(F)c1-2 (stereo not given) | –
